Measured values taken from PMC10449632, “Structural basis for translation inhibition by the glycosylated drosocin peptide” (Nature Chemical Biology, 2023).
No end group written: not given here. *: point of attachment. αGalNAc = CC(=O)N[C@@H]1[C@@H](O)[C@@H](O)[C@@H](CO)O[C@@H]1*

Key:
[1] = tested on: in vitro translation, E. coli PURExpress system, firefly luciferase (Fluc) mRNA; assay: In vitro translation assay with Fluc reporter; type: biochemical, Escherichia coli; conditions: Fluc mRNA, luminescence; for maximum inhibition of in vitro translation: at the highest concentration tested of 150 μM
Protocol: To investigate this, we compared the effect of increasing concentrations (0–150 μM) of modified Dro1 and Dro2 with unmodified Dro, Dro-3P and Api137 using a cell-free in vitro translation system and firefly luciferase (Fluc) mRNA as a template (Fig. 1e), as we have used previously for assessing the activity of other PrAMPs[4],[6],[8],[9],[32],[33].
The in vitro translation assay was carried out as described previously[4],[8] using the E. coli PURExpress system (New England Biolabs (NEB), E6800S). Then, 1 µl of antibiotic solution was added to 5 µl of PURExpress reaction mix. Each reaction contained 10 ng μl^−1 of mRNA encoding the Fluc, which was in vitro transcribed from a pIVEX-2.3MCS vector containing the Fluc gene using T7 polymerase (Thermo Fisher Scientific). The reaction mix was incubated for 30 minutes at 32 °C while shaking (600 r.p.m.). Reactions were stopped with 5 µl of kanamycin (50 mg ml^−1) and transferred into a 96-well microplate (Greiner Lumitrac, non-binding, white, chimney). Next, 40 µl of luciferase assay substrate solution (Promega, E1501) was added, and luminescence was measured using a plate reader (Tecan Infinite 200 PRO). Nuclease-free water was added instead of antibiotic as control. Absolute luminescence values were normalized using reactions without antibiotic. All assays were done as triplicates with individually prepared reaction mix.

[2] = tested on: E. coli SQ171 A752G/U2609C; assay: Antibiotic susceptibility (growth) assay, E. coli SQ171 A752G/U2609C; type: cell-based, Escherichia coli; conditions: for OD600 at t = 12 h, Normalized, Average: relative to no compound, mean of 3 replicas
Source text: In addition, we also used a strain with a U2609C–A752G double mutation, which would be predicted to restore Watson–Crick base pairing, and with three hydrogen bonds could possibly make breaking the base pair harder than with the canonical two hydrogen bonds for the A–U base pair. As a control, we also tested Dro that lacks the α-D-GalNAc modification, which we predict (assuming that Dro binds analogously to Dro1) should not interact with U2609 and, therefore, not be influenced by the conformation of the U2609–A752 base pair.
Strains E. coli Keio wild-type and E. coli Keio ΔsbmA used from the Keio knockout collection (Horizon, https://horizondiscovery.com). Wild-type E. coli SQ110 (ΔrrnGADBHC(ptRNA67))[47] and SQ171 (ΔrrnGADEHBC(pKK3535, ptRNA67))[47] strains and related mutants E. coli SQ110 A2059G and E. coli SQ171 A2503G were obtained from the previous Api137 study. E. coli strains SQ171 bearing A752G, U2609C and A752G:U2609C mutations[43] and E. coli SQ171 U2609G[48] were generated previously.
The susceptibility of E. coli strains to compounds was evaluated by monitoring the bacterial growth in presence of increasing concentrations of the compound of interest. In brief, bacteria were inoculated in a total volume of 100 μl of medium contained in a well of a 96-well microplate (round bottom, with cap, sterile; Sarstedt). The medium used was either LB, as rich medium, or ATCC medium (778 Davis and Mingioli glucose minimal medium), as minimal medium. Before inoculation, bacteria were grown up to exponential phase and then inoculated into the culture mix, containing selective antibiotic if necessary, with an initial optical density at 600 nm (OD600) of 0.05. Values measured from wells containing just the medium were used as a blank. The growth in each well was monitored by measuring the OD600 every 10 minutes for a total of 20 hours at 37 °C with shaking using a plate reader (Tecan Infinite 200 PRO). The inhibition resulting from a compound’s concentration was evaluated by normalizing the OD600 at t = 12 hours (corresponding to the end of the log phase) from the treated culture to the untreated one. For each compound, the concentrations tested were 5 μM, 10 μM and 30 μM. Each single titration assay was done in triplicate with individually prepared culture mixes. For each concentration, the standard deviation was calculated, taking into account each single replica and its specific technical error from the plate reader.

[3] = tested on: ribosomes at the stop codon of MLIF-UAA mRNA in the presence of RF1; assay: Toeprinting assay on MLIF*-mRNA with RF1; type: biochemical, Escherichia coli; conditions: for Relative stop band intensity signal: 30 μM compound, MLIF*-mRNA, plotted values; for stalling of ribosomes at the stop codon: toeprinting, 30 μM peptide, 1× or 10× RF1 (trend also with ten-fold RF2)
Protocol: To ascertain which step during protein synthesis is affected by drosocin, we performed toeprinting assays, where reverse transcription is used to monitor the position of ribosomes on a defined mRNA[34].
Toeprinting reactions were performed as described previously. In brief, reactions were performed with 6 μl of PURExpress ΔRF123 in vitro protein synthesis system (NEB) in the presence of 1× RF3 and either 1× or 10× of RF1 or RF2 (relative to the manufacturer’s recommendation). The reactions were carried out on an MLIF-UAA-toeprint template (5′-[…]-3′, ORF start codon and stop codon are underlined bold), containing T7 promoter, a ribosome binding site, an MLIF-coding ORF and the NV1* primer binding site. The template is a version of the ErmBL template with a truncated ORF and addition of a isoleucine coding codon at the third position in the ORF. The template was generated by polymerase chain reaction of two overlapping 77-nt- and 78-nt-long primers. The reactions contained 30 ng of the MLIF-UAA-toeprint DNA template. The reactions were supplemented with Api137, thiostrepton or one of the drosocin derivates as specified. The transcription–translation reactions were incubated for 15 minutes at 37 °C. The reverse transcription on the MLIF-short-UAA toeprint template was carried out using AMV RT and primer NV*1-Alexa 647 (5′-[…]-3′). The transcription–translation reactions were incubated with AMV RT and NV*1-Alexa 647 for 20 minutes at 37 °C. mRNA degradation was carried out by the addition of 1 µl of 5 M NaOH. The reactions were neutralized with 0.7 µl of 25% HCl, and nucleotide removal was performed with the QIAquick Nucleotide Removal Kit (Qiagen). The samples were dried under vacuum for 2 hours at 60 °C for subsequent gel electrophoresis. The 6% acrylamide gels were scanned on a Typhoon scanner (GE Healthcare).

| Substance | IC50 ([1]; 0–150 μM peptide, 30 minutes at 32 °C, triplicate, read-out: half maximal inhibitory concentration (IC50), in vitro translation) | maximum inhibition of in vitro translation [1] | OD600 at t = 12 h, Normalized, Average ([2]; 5 μM) | OD600 at t = 12 h, Normalized, Average ([2]; 30 μM) | tolerance of double mutant relative to the wild-type strain ([2]; U2609C–A752G double mutation vs wild-type SQ171, 30 μM) | Relative stop band intensity signal ([3]; Fig 1f, RF1 (1X)) | Relative stop band intensity signal ([3]; Fig 1g, RF1 (10X)) | stalling of ribosomes at the stop codon [3] |
| --- | --- | --- | --- | --- | --- | --- | --- | --- |
| Dro1: naturally occurring drosocin carrying monosaccharide α-D-GalNAc attached to Thr11 (GKPRPYSPRPT(αGalNAc)SHPRPIRV; UniProt P36193 22-40, looked up) | 78 ± 13 µM | 60% | 70% | 25% | 2.5 fold | 0.3782 | 0.6764 | strongest stalling |
| Dro: unmodified drosocin, 19 amino acid proline-rich antimicrobial peptide lacking O-glycosylation (GKPRPYSPRPTSHPRPIRV; Drosocin; UniProt P36193 22-40, looked up) | – | 20% | 85% | 72% | – | 0.2211 | 0.4823 | good activity |
